# Experimental data published in patent US11767341B2, “Lincosamide antibiotics and uses thereof” (President and Fellows of Harvard College, priority 2017, dated 2023).
# Where two headings read alike, the source gives them in different places.
# Key:
# Test in all cases: MIC determination
# Assay type in all cases: cell-based
# S. aureus ATCC 29213 = test system: S. aureus ATCC 29213
# S. aureus BAA 977 iErmA = details: Staphylococcus aureus, BAA977
# [1] = test system: S. aureus MP-549 msr(a) USA 300; details: Staphylococcus aureus, USA300, S. aureus MP-549 msr(a) USA 300
# S. aureus MMX 3035 cErmA = details: Staphylococcus aureus, MMX3035CERMA; S. aureus MMX 3035 cErmA; read-out: MIC
# S. pneumoniae ATCC 49619 = details: Streptococcus pneumoniae, ATCC49619; S. pneumoniae ATCC 49619; read-out: MIC
# [2] = test system: S. pneumoniae MMX 3028 cErmB; details: Streptococcus pneumoniae, MMX3028CERMB
# [3] = test system: S. pneumoniae MMX 3031 cMefA; details: Streptococcus pneumoniae, MMX3031CMEFA
# S. pyogenes ATCC 19615 = details: S. pyogenes ATCC 19615
# [4] = test system: S. pyogenes MMX 946 Macrolide-Resistant; details: Streptococcus pyogenes
# E. faecalis ATCC 29212 = details: Enterococcus faecalis
# [5] = test system: E. faecalis MMX 847 Macrolide-Resistant; details: Enterococcus faecalis, read-out: MIC
# K. pneumoniae ATCC 10031 = details: Klebsiella pneumoniae, ATCC10031
# E. coli ATCC 25922 = details: Escherichia coli, ATCC25922, E. coli ATCC 25922; read-out: MIC
# E. coli MP-9 ΔTolC = test system: E. coli MP-9 ΔTolC
# [6] = test system: E. coli MP-74 LptD mutant
# H. influenzae ATCC 49247 = test system: H. influenzae ATCC 49247
# [7] = Staphylococcus aureus, ATCC29213, S. aureus ATCC 29213, read-out: MIC
# [8] = Streptococcus pyogenes, ATCC19615, read-out: MIC
# [9] = S. pyogenes MMX 946 Macrolide-Resistant (MacRes), read-out: MIC
# [10] = E. faecalis MMX 847 Macrolide-Resistant (MacRes)
# [11] = Haemophilus influenzae, ATCC49247, H. influenzae ATCC 49247, read-out: MIC
# [12] = S. pneumoniae MMX 3028 cErmB, read-out: MIC
# [13] = S. pyogenes MMX 946 MacRes, read-out: MIC
# [14] = Haemophilus influenzae, ATCC49247
SMILES,MIC (S. aureus ATCC 29213; [7]),MIC (S. aureus BAA 977 iErmA),MIC [1],MIC (S. aureus MMX 3035 cErmA),MIC (S. pneumoniae ATCC 49619),MIC [2],MIC [3],MIC (S. pyogenes ATCC 19615; [8]),"MIC [4, 9]","MIC (E. faecalis ATCC 29212; ATCC29212, read-out: MIC)","MIC [5, 10]",MIC (K. pneumoniae ATCC 10031),MIC (E. coli ATCC 25922),MIC (E. coli MP-9 ΔTolC; Escherichia coli),MIC ([6]; Escherichia coli),MIC (H. influenzae ATCC 49247; [11]),"MIC [2, 12]",MIC ([5]; E. faecalis MMX 847 MacRes),also measured
CSC1O[C@H]([C@H](NC(=O)[C@H]2NC[C@@H]3C=C(c4cccc(F)c4)CCO[C@@H]23)[C@H](C)Cl)C(O)[C@@H](O)[C@H]1O (stereo partly drawn) [FSA-511071],7 mg/L,2 mg/L,1 mg/L,> 64 mg/L,0.25 mg/L,64 mg/L,0.5 mg/L,0.5 mg/L,> 64 mg/L,4 mg/L,> 64 mg/L,64 mg/L,> 64 mg/L,64 mg/L,64 mg/L,> 64 mg/L,–,–,–
CSC1O[C@H]([C@H](NC(=O)[C@H]2NC[C@@H]3C=C(c4ccc(F)cc4F)CCO[C@@H]23)[C@H](C)Cl)C(O)[C@@H](O)[C@H]1O (stereo partly drawn) [FSA-511072],1 mg/L,1 mg/L,1 mg/L,> 64 mg/L,0.12 mg/L,64 mg/L,0.12 mg/L,0.25 mg/L,> 64 mg/L,4 mg/L,> 64 mg/L,32 mg/L,> 64 mg/L,32 mg/L,64 mg/L,> 64 mg/L,–,–,–
CSC1O[C@H]([C@H](NC(=O)[C@H]2NC[C@@H]3C=C(c4ccccc4F)CCO[C@@H]23)[C@H](C)Cl)C(O)[C@@H](O)[C@H]1O (stereo partly drawn) [FSA-511073],1 mg/L,1 mg/L,1 mg/L,> 64 mg/L,0.12 mg/L,64 mg/L,0.12 mg/L,0.25 mg/L,> 64 mg/L,4 mg/L,> 64 mg/L,64 mg/L,> 64 mg/L,64 mg/L,64 mg/L,> 64 mg/L,–,–,–
COc1ccc([C@H]2CCO[C@@H]3[C@H](CN[C@@H]3C(=O)N[C@H]([C@H](C)Cl)[C@H]3OC(SC)[C@H](O)[C@H](O)C3O)C2)cc1 (stereo partly drawn) [FSA-512080b],0.12 mg/L,0.25 mg/L,0.5 mg/L,64 mg/L,≤ 0.06 mg/L,–,≤ 0.06 mg/L,≤ 0.06 mg/L,–,–,–,–,128 mg/L,4 mg/L,8 mg/L,16 mg/L,4 mg/L,64 mg/L,"MIC [4, 13]: 16 mg/L; MIC (E. faecalis ATCC 29212; ATCC29212): 0.5 mg/L"
COc1ccc([C@@H]2CCO[C@@H]3[C@H](CN[C@@H]3C(=O)N[C@H]([C@H](C)Cl)[C@H]3OC(SC)[C@H](O)[C@H](O)C3O)C2)cc1 (stereo partly drawn) [FSA-512080c],0.25 mg/L,0.5 mg/L,0.5 mg/L,128 mg/L,≤ 0.06 mg/L,–,0.12 mg/L,≤ 0.06 mg/L,–,2 mg/L,–,–,> 128 mg/L,8 mg/L,32 mg/L,–,16 mg/L,128 mg/L,"MIC [4, 13]: 64 mg/L; MIC (H. influenzae ATCC 49247; [14]): 32 mg/L"
CSC1O[C@H]([C@H](NC(=O)[C@H]2NC[C@@H]3C[C@@H](c4ccc(C#N)cc4)CCO[C@H]32)[C@H](C)Cl)C(O)[C@@H](O)[C@H]1O (stereo partly drawn) [FSA-512081a],–,1 mg/L,–,128 mg/L,–,–,< 0.06 mg/L,–,–,–,–,–,–,–,–,–,4 mg/L,64 mg/L,MIC (S. aureus ATCC 29213; S. aureus ATCC 29213): 0.25 mg/L; MIC (S. pyogenes ATCC 19615): ≤0.06 mg/L; MIC [4]: 16 mg/L; MIC (E. faecalis ATCC 29212; ATCC29212): 0.5 mg/L; MIC (E. coli MP-9 ΔTolC): 4 mg/L; MIC [6]: 16 mg/L; MIC (H. influenzae ATCC 49247; H. influenzae ATCC 49247): 16 mg/L
CSC1O[C@H]([C@H](NC(=O)[C@H]2NC[C@@H]3C[C@H](c4ccc(C#N)cc4)CCO[C@H]32)[C@H](C)Cl)C(O)[C@@H](O)[C@H]1O (stereo partly drawn) [FSA-512081b],0.25 mg/L,1 mg/L,1 mg/L,128 mg/L,≤ 0.06 mg/L,16 mg/L,0.12 mg/L,≤ 0.06 mg/L,–,1 mg/L,–,–,128 mg/L,8 mg/L,32 mg/L,–,–,128 mg/L,MIC [4]: 32 mg/L; MIC (H. influenzae ATCC 49247; [14]): 16 mg/L
